Measured values as given in US20230295182A1, “SPIRO DERIVATIVES OF ALPHA-D-GALACTOPYRANOSIDES” (Idorsia Pharmaceuticals Ltd, priority 2020, published 2023).
pIC50: −log10 of the molar value.

What was measured:
[1] = biological target: human Gal-3 (hGal-3) (Homo sapiens (Human), UniProt P17931); experiment: Competitive binding assay: biotinylated hGal-3 to microplate-adsorbed asialofetuin (ASF); settings: Activity on hGal-3; binding to ASF-coated plates, 3 hours at 4° C.; mean values
Outline: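 Biotinylated hGal-3 (300-1000 ng/mL) binding to plate-adsorbed asialofetuin, with DMSO-diluted compound added, incubated 3 h at 4 °C. After washing, bound protein detected with streptavidin-peroxidase (80 ng/mL, 1 h, 4 °C) and ABTS substrate, read spectrophotometrically. IC50 given as mean of several measurements.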

[2] = biological target: human Gal-1 (hGal-1) (Homo sapiens, UniProt P09382); experiment: Competitive binding assay: biotinylated hGal-1 to microplate-adsorbed asialofetuin (ASF); settings: Activities on hGal-1; binding to ASF-coated plates, 3 hours at 4° C.; mean values; read-out: Gal-1 IC50
Sequence of human Gal-1 (hGal-1) (P09382 2-135 limits assumed): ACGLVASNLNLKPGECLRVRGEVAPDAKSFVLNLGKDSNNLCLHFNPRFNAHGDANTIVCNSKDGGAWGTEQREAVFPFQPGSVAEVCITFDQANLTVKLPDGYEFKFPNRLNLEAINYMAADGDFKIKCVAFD
Outline: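 Plate-adsorbed asialofetuin is incubated 3 h at 4 °C with biotinylated hGal-1, optionally its all-serine-substituted cysteine variant, plus compound dilutions. ABTS color after 1 h streptavidin-peroxidase (80 ng/mL) at 4 °C reports binding. Reported IC50 is a mean across repeat runs.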

Sequence of human Gal-3 (hGal-3) (P17931 whole entry): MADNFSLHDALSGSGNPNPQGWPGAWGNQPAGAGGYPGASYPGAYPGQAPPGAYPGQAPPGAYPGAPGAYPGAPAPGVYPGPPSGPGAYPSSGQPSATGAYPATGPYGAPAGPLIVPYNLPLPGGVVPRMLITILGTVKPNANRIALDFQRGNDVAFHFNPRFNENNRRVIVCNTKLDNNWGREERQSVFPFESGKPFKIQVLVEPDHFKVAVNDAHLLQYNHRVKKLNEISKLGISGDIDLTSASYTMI

SMILES | pIC50 [1] | pIC50 [2]
CO[C@@H]1[C@@H](n2cc(-c3ccc(F)c(F)c3F)nn2)[C@@H](O)[C@@H](CO)O[C@@H]1CC1=NO[C@]2(CC[C@H](NC(C)=O)CC2)C1 [Example 2.08, N-((5r,8R)-3-(((2R,3R,4S,5R,6R)-5-hydroxy-6-(hydroxymethyl)-3-methoxy-4-(4-(2,3,4-trifluorophenyl)-1H-1,2,3-triazol-1-yl)tetrahydro-2H-pyran-2-yl)methyl)-1-oxa-2-azaspiro[4.5]dec-2-en-8-yl)acetamide] | 7.28 | 6.51
CNC(=O)CO[C@@H]1[C@@H](n2cc(-c3cc(F)c(F)c(F)c3)nn2)[C@@H](O)[C@@H](CO)O[C@@H]1CC1=NOC2(CCCCC2)C1 [Example 1.70, 2-(((2R,3R,4S,5R,6R)-2-((1-oxa-2-azaspiro[4.5]dec-2-en-3-yl)methyl)-5-hydroxy-6-(hydroxymethyl)-4-(4-(3,4,5-trifluorophenyl)-1H-1,2,3-triazol-1-yl)tetrahydro-2H-pyran-3-yl)oxy)-N-methylacetamide] | 6.62 | 5.29
CO[C@@H]1[C@@H](n2cc(-c3cc(F)c(F)c(F)c3)nn2)[C@@H](O)[C@@H](CO)O[C@@H]1CC1=NO[C@]2(CC[C@@H](C#N)CC2)C1 [Example 1.39, (5s,8S)-3-(((2R,3R,4S,5R,6R)-5-hydroxy-6-(hydroxymethyl)-3-methoxy-4-(4-(3,4,5-trifluorophenyl)-1H-1,2,3-triazol-1-yl)tetrahydro-2H-pyran-2-yl)methyl)-1-oxa-2-azaspiro[4.5]dec-2-ene-8-carbonitrile] | 6.59 | 5.15
CO[C@@H]1[C@@H](n2cc(-c3cc(F)cc(Cl)c3)nn2)[C@@H](O)[C@@H](CO)O[C@@H]1CC1=NOC2(CCCCC2)C1 [Example 1.19, (2R,3R,4S,5R,6R)-6-((1-oxa-2-azaspiro[4.5]dec-2-en-3-yl)methyl)-4-(4-(3-chloro-5-fluorophenyl)-1H-1,2,3-triazol-1-yl)-2-(hydroxymethyl)-5-methoxytetrahydro-2H-pyran-3-ol] | 6.17 | 5.38
CO[C@@H]1[C@@H](n2cc(-c3ccc(F)c(F)c3F)nn2)[C@@H](O)[C@@H](CO)O[C@@H]1CC1=NOC2(CCCCC2)C1 [Example 1.13, (2R,3R,4S,5R,6R)-6-((1-oxa-2-azaspiro[4.5]dec-2-en-3-yl)methyl)-2-(hydroxymethyl)-5-methoxy-4-(4-(2,3,4-trifluorophenyl)-1H-1,2,3-triazol-1-yl)tetrahydro-2H-pyran-3-ol] | 6.85 | 6.28
CO[C@@H]1[C@@H](n2cc(-c3cc(F)c(F)c(F)c3)nn2)[C@@H](O)[C@@H](CO)O[C@@H]1CC1=NO[C@]2(CC[C@@H](NC(C)C)CC2)C1 [Example 2.13, (2R,3R,4S,5R,6R)-2-(hydroxymethyl)-6-(((5s,8S)-8-(isopropylamino)-1-oxa-2-azaspiro[4.5]dec-2-en-3-yl)methyl)-5-methoxy-4-(4-(3,4,5-trifluorophenyl)-1H-1,2,3-triazol-1-yl)tetrahydro-2H-pyran-3-ol] | 6.26 | 5.15
CO[C@@H]1[C@@H](n2cc(-c3ccc(Cl)c(F)c3F)nn2)[C@@H](O)[C@@H](CO)O[C@@H]1CC1=NOC2(C1)CN(C(=O)OC(C)(C)C)C2 [Example 1.80, tert-butyl 7-(((2R,3R,4S,5R,6R)-4-(4-(4-chloro-2,3-difluorophenyl)-1H-1,2,3-triazol-1-yl)-5-hydroxy-6-(hydroxymethyl)-3-methoxytetrahydro-2H-pyran-2-yl)methyl)-5-oxa-2,6-diazaspiro[3.4]oct-6-ene-2-carboxylate] | 6.51 | 5.14
CO[C@@H]1[C@@H](n2cc(-c3cc(F)c(C)cc3F)nn2)[C@@H](O)[C@@H](CO)O[C@@H]1CC1=NOC2(CCCCC2)C1 [Example 1.47, (2R,3R,4S,5R,6R)-6-((1-oxa-2-azaspiro[4.5]dec-2-en-3-yl)methyl)-4-(4-(2,5-difluoro-4-methylphenyl)-1H-1,2,3-triazol-1-yl)-2-(hydroxymethyl)-5-methoxytetrahydro-2H-pyran-3-ol] | 6.37 | 5.66
CC(=O)O[C@@H]1[C@@H](n2cc(-c3ccc(C)c(F)c3F)nn2)[C@@H](O)[C@@H](CO)O[C@@H]1CC1=NOC2(CCC(F)(F)CC2)C1 [Example 1.03, (2R,3R,4S,5R,6R)-2-((8,8-difluoro-1-oxa-2-azaspiro[4.5]dec-2-en-3-yl)methyl)-4-(4-(2,3-difluoro-4-methylphenyl)-1H-1,2,3-triazol-1-yl)-5-hydroxy-6-(hydroxymethyl)tetrahydro-2H-pyran-3-yl acetate] | 7.10 | < 4.00
CO[C@@H]1[C@@H](n2cc(-c3ccc(Cl)c(F)c3F)nn2)[C@@H](O)[C@@H](CO)O[C@@H]1CC1=NO[C@]2(CC[C@@H](C#N)CC2)C1 [Example 1.60, (5s,8S)-3-(((2R,3R,4S,5R,6R)-4-(4-(4-chloro-2,3-difluorophenyl)-1H-1,2,3-triazol-1-yl)-5-hydroxy-6-(hydroxymethyl)-3-methoxytetrahydro-2H-pyran-2-yl)methyl)-1-oxa-2-azaspiro[4.5]dec-2-ene-8-carbonitrile] | 7.05 | 5.80
CO[C@@H]1[C@@H](n2cc(-c3ccc(C)c(F)c3F)nn2)[C@@H](O)[C@@H](CO)O[C@@H]1CC1=NO[C@]2(CC[C@H](NCC(F)F)CC2)C1 [Example 1.74, (2R,3R,4S,5R,6R)-4-(4-(2,3-difluoro-4-methylphenyl)-1H-1,2,3-triazol-1-yl)-6-(((5r,8R)-8-((2,2-difluoroethyl)amino)-1-oxa-2-azaspiro[4.5]dec-2-en-3-yl)methyl)-2-(hydroxymethyl)-5-methoxytetrahydro-2H-pyran-3-ol] | 6.92 | 5.62
CO[C@@H]1[C@@H](n2cc(-c3cc(F)c(F)c(F)c3)nn2)[C@@H](O)[C@@H](CO)O[C@@H]1CC1=NO[C@]2(CC[C@H](C(C)C)CC2)C1 [Example 1.27, (2R,3R,4S,5R,6R)-2-(hydroxymethyl)-6-(((5r,8R)-8-isopropyl-1-oxa-2-azaspiro[4.5]dec-2-en-3-yl)methyl)-5-methoxy-4-(4-(3,4,5-trifluorophenyl)-1H-1,2,3-triazol-1-yl)tetrahydro-2H-pyran-3-ol] | 5.96 | 4.73
CO[C@@H]1[C@@H](n2cc(-c3ccc(C)c(F)c3F)nn2)[C@@H](O)[C@@H](CO)O[C@@H]1CC1=NOC2(C1)CC1CCC(C1)C2 (stereo partly drawn) [Example 1.82, (2R,3R,4S,5R,6R)-6-((4′H-spiro[bicyclo[3.2.1]octane-3,5′-isoxazol]-3′-yl)methyl)-4-(4-(2,3-difluoro-4-methylphenyl)-1H-1,2,3-triazol-1-yl)-2-(hydroxymethyl)-5-methoxytetrahydro-2H-pyran-3-ol] | 7.30 | 5.71
CO[C@@H]1[C@@H](n2cc(-c3cc(F)c(F)c(F)c3)nn2)[C@@H](O)[C@@H](CO)O[C@@H]1CC1=NO[C@]2(CC[C@H](NCC(F)F)CC2)C1 [Example 2.20, (2R,3R,4S,5R,6R)-6-(((5r,8R)-8-((2,2-difluoroethyl)amino)-1-oxa-2-azaspiro[4.5]dec-2-en-3-yl)methyl)-2-(hydroxymethyl)-5-methoxy-4-(4-(3,4,5-trifluorophenyl)-1H-1,2,3-triazol-1-yl)tetrahydro-2H-pyran-3-ol] | 6.96 | 5.74
CO[C@@H]1[C@@H](n2cc(-c3cc(F)c(F)c(F)c3)nn2)[C@@H](O)[C@@H](CO)O[C@@H]1CC1=NOC2(CCC(C)(C)C2)C1 (stereo partly drawn) [Example 1.32, (2R,3R,4S,5R,6R)-6-((7,7-dimethyl-1-oxa-2-azaspiro[4.4]non-2-en-3yl)methyl)-2-(hydroxymethyl)-5-methoxy-4-(4-(3,4,5-trifluorophenyl)-1H-1,2,3-triazol-1-yl)tetrahydro-2H-pyran-3-ol] | 6.47 | 5.47
O=C(CO[C@@H]1[C@@H](n2cc(-c3cc(F)c(F)c(F)c3)nn2)[C@@H](O)[C@@H](CO)O[C@@H]1CC1=NOC2(CCCCC2)C1)N1CCOCC1 [Example 1.71, 2-(((2R,3R,4S,5R,6R)-2-((1-oxa-2-azaspiro[4.5]dec-2-en-3-yl)methyl)-5-hydroxy-6-(hydroxymethyl)-4-(4-(3,4,5-trifluorophenyl)-1H-1,2,3-triazol-1-yl)tetrahydro-2H-pyran-3-yl)oxy)-1-morpholinoethan-1-one] | 6.70 | 5.54
CO[C@@H]1[C@@H](n2cc(-c3cc(F)c(F)c(F)c3)nn2)[C@@H](O)[C@@H](CO)O[C@@H]1CC1=NO[C@]2(CC[C@@H](NC(=O)OC(C)(C)C)CC2)C1 [Example 1.16, tert-butyl ((5s,8S)-3-(((2R,3R,4S,5R,6R)-5-hydroxy-6-(hydroxymethyl)-3-methoxy-4-(4-(3,4,5-trifluorophenyl)-1H-1,2,3-triazol-1-yl)tetrahydro-2H-pyran-2-yl)methyl)-1-oxa-2-azaspiro[4.5]dec-2-en-8-yl)carbamate] | 6.47 | 5.64
Cc1ccc(-c2cn([C@H]3[C@@H](O)[C@@H](CO)O[C@H](CC4=NOC5(CCC(F)(F)CC5)C4)[C@@H]3O)nn2)c(F)c1F [Example 1.04, (2R,3R,4R,5R,6R)-2-((8,8-difluoro-1-oxa-2-azaspiro[4.5]dec-2-en-3-yl)methyl)-4-(4-(2,3-difluoro-4-methylphenyl)-1H-1,2,3-triazol-1-yl)-6-(hydroxymethyl)tetrahydro-2H-pyran-3,5-diol] | 6.77 | 4.98
